Data on three molecules can be found in US20240217997A1 (priority 2021, published 2024).

One experiment concerns Plasmodium falciparum. Put plainly: Plasmodium falciparum minimum inhibitory concentration (MIC), Table 4. It counts as cell-based.
A further experiment has as its target P. falciparum DXR (Plasmodium falciparum, UniProt Q8IKG4). The settings on record: cited from earlier work.
The test system of experiment [1] is Mycobacterium tuberculosis. Description: microbe, parasite or virus in culture.

In brackets after ≈: the same amount, converted by molar mass. Where two headings read alike, the source gives them in different places.

Sequence of P. falciparum DXR (Q8IKG4 73-488): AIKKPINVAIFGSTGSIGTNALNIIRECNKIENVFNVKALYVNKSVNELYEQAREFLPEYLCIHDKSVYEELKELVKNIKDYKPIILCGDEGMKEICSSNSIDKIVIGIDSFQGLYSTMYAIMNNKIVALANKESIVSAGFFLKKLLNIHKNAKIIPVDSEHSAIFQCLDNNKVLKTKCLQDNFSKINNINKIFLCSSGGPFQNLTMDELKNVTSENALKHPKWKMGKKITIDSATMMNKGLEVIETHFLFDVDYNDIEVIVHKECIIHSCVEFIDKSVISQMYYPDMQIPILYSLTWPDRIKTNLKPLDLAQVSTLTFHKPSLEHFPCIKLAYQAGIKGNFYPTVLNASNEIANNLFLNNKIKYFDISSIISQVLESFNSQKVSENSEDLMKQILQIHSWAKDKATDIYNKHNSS

`O=CN(O)CCCP(=O)(O)O` [Fosmidomycin]: the “MIC, Mean” value against Plasmodium falciparum (Mean of Runs 1-3) is 0.9075 µg/mL (≈ 4.96 µM). Further, the “MIC, Run 1” value in the experiment on Plasmodium falciparum (Run 1) was 1.391 µg/mL (≈ 7.6 µM). In the experiment on Plasmodium falciparum (Run 2), the “MIC, Run 2” value was found to be 0.7607 µg/mL (≈ 4.15 µM). Further, the “MIC, Run 3” value with Plasmodium falciparum (Run 3) was 0.5708 µg/mL (≈ 3.12 µM).

For orientation: IC50 means the concentration needed to halve the response being measured. In the case of `CC(=O)N(O)CCCP(=O)(O)O` [FR900098], the IC50 on P. falciparum DXR is 24 nM.

With `NNC(=O)c1ccncc1` [Isoniazid], the MIC in experiment [1] (168 h, read-out: 1-week MIC 7H9/glucose/BSA/Tx) was found to be 0.02 µg/mL (≈ 0.146 µM); in experiment [1] (168 h, read-out: 1-week MIC 7H9/glucose/casitone/Tx), 0.02 µg/mL (≈ 0.146 µM); in experiment [1] (168 h, read-out: 1-week MIC 7H9/glycerol/glucose/BSA/Tween), 0.03 µg/mL (≈ 0.219 µM); in experiment [1] (336 h, read-out: 2-week MIC 7H9/glucose/BSA/Tx) it was 0.03 µg/mL (≈ 0.219 µM); in experiment [1] (336 h, read-out: 2-week MIC 7H9/glucose/casitone/Tx), 0.02 µg/mL (≈ 0.146 µM); in experiment [1] (336 h, read-out: 2-week MIC 7H9/glycerol/glucose/BSA/Tween), 0.039 µg/mL (≈ 0.284 µM).
